Data published in article PMC6154706, “Inhibitory Effect of Triterpenoids from Panax ginseng on Coagulation Factor X” (Molecules : A Journal of Synthetic Chemistry and Natural …, 2017).
Where two headings read alike, the source gives them in different places.

Tests used:
Platelet poor plasma = test: Blood clotting time in vitro (APTT, PT, TT); format: biochemical, rats; conditions: PT and TT tests, final concentration 0.05 mg/mL
Protocol: Rats were anaesthetized with 10% chloral hydrate (3 mL/kg). The blood obtained from the abdominal aorta was collected directly into citrated tubes containing 3.8% sodium citrate (1:9 (v/v)) and was used immediately after collection. Platelet poor plasma […] was prepared by centrifuging the blood at 3000 rpm for 20 min at 20 °C [24]. Plasma samples with jaundice, chylus, hemolysis and blood clot were excluded prior to the assays. Plasma mixtures were 90 μL of PRP with 10 μL of tested compounds (0.5 mg/mL, dissolved in DMSO). For PRP in the solvent group, the sample was 90 μL of PRP with 10 μL of DMSO. For PRP in the normal control group, the plasma was not-treated PRP sample. For PRP in the heparin group, the sample was 90 μL of PRP with 10 μL of heparin (0.1 mg/mL), which was used as the positive control drug.
Blood coagulation assays were carried out using a coagulation analyzer at the Blood Center clinical laboratory in the Second Hospital affiliated to Jilin University (Changchun, China). Measurements of APTT, PT and TT were performed according to the manufacturer’s recommended protocols. The anti-coagulant activity was expressed as clotting time ± standard deviation (S.D.). Briefly, for APTT assay, 50 μL of the plasma mixture was incubated at 37 °C for 60 s and the mixture was added to the APTT reagent (50 μL) and incubated at 37 °C for 15 min. Finally, APTT values were recorded. For the PT assay, 50 μL of the plasma mixture was incubated at 37 °C for 60 s and then added into the PT reagent (100 μL) prior to incubation at 37 °C for 15 min before the PT values were recorded. For the TT assay, 80 μL of the plasma mixture was incubated at 37 °C for 60 s before the addition of 80 μL of TT reagent for 100 s. TT values were determined by the coagulation analyzer.

blood coagulation = conditions: 0.05 mg/mL final concentration vs 0.1 mg/mL heparin; cited from earlier work
[1] = biological target: T1, coagulation factor Xa (FXa) (Bos taurus, UniProt P00743); test: FXa activity assay in vitro (chromogenic substrate method); format: biochemical
T1 construct: purchased New England Biolabs (Hitchin, UK)
Protocol: 10 µL of FXa (final concentration of 0.5 nM), 40 µL of Tris buffer (adjusted to pH 7.4 with HCl containing 0.3 M NaCl and 50 mM Tris) and 10 µL of test compounds were added to the well, respectively. The negative control was performed using the same mixed solutions except that the test compound was replaced with DMSO. […] After 15 min of incubation at 37 °C, FXa substrate (40 μL, final concentration of […]) was added and then was incubated 37 °C for 25 min [3]. The optical density (OD) values at 405 nm were evaluated by an automated microplate reader. […] Inhibition rate was calculated by the following formula: Anti-FXa activity = (V0 − Vi)/V0 [21]. The IC50 value was subsequently calculated by SPSS 19.0.

thrombus = test system: thrombus; set-up: method as in PMID 24412029, PMID 22216842; conditions: rat models, orally administered; cited from earlier work
FXa = test system: FXa; set-up: method as in PMID 24412029, PMID 22216842; conditions: cited from earlier work
human FIIa (thrombin) = biological target: T2, human FIIa (thrombin) (Homo sapiens, UniProt P00734); test: Thrombin inhibition in vitro (chromogenic substrate CS-01(38)); format: biochemical; conditions: pH 7.4, 37 °C, 405 nm
T2 construct: purchased Hyphen BioMed (Paris, France)
Protocol: The inhibition of thrombin was evaluated by human FIIa and chromogenic substrate CS-01(38) in 96-well microtiter plates at room temperature. Compounds 5, 13 and 18 as well as the positive reagent Ximelagatran were dissolved in DMSO to a concentration of 1mM and then serially diluted to a range of 10 μM to 100 μM, respectively. 8 μL of FIIa (3 NIH U/mL), 80 μL of Tris buffer (adjusted to pH 7.4 with HCl) containing 0.3 M NaCl and 50 mM Tris and 8 μL of test compounds were added to the well, respectively. The negative control was performed using the same mixed solutions except that tested compounds were replaced with DMSO. The positive control was performed using the same mixed solutions except that the test compounds were replaced with ximelagatran. After incubation at 37 °C for 15 min, 12 μL of FIIa substrate solution (4 mM) was added and then incubated at 37 °C for 25 min [3]. The anti-FIIa activity was measured at 405 nm using a microplate reader.

[2] = FXa 0.5 nM, pH 7.4, 37 °C, OD 405 nm, read-out: IC50 against coagulation factor Xa (FXa)

T1 sequence (P00743 41-180): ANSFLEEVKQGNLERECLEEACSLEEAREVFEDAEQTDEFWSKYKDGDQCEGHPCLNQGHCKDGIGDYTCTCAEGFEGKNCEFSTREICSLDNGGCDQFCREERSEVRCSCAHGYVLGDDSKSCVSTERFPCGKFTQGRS
T1 sequence (P00743 234-492): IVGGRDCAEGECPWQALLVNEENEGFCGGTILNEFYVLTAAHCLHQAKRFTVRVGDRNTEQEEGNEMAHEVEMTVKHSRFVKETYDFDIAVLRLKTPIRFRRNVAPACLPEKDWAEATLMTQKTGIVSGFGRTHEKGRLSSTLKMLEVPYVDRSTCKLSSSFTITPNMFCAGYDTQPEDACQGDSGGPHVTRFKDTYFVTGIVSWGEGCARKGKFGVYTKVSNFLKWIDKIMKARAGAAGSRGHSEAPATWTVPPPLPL

| Compound | In vitro anti-coagulation activity versus normal control (Platelet poor plasma) | IC50 [1, 2] [nM] | other results |
| --- | --- | --- | --- |
| CC(C)=CCC[C@](C)(O[C@@H]1O[C@H](CO)[C@@H](O)[C@H](O)[C@H]1O)[C@H]1CC[C@]2(C)[C@@H]1[C@H](O)C[C@@H]1[C@@]3(C)CC[C@H](O)C(C)(C)[C@@H]3[C@@H](O[C@@H]3O[C@H](CO)[C@@H](O)[C@H](O)[C@H]3O)C[C@]12C [Rg1, ginsenoside Rg1] | significant anti-coagulation activity | 335 | Anti-coagulant activities in vitro compared to heparin (blood coagulation): significantly better anti-coagulant activities |
| CC1(C)[C@@H](O)CC[C@]2(C)[C@H]3C(=O)C=C4[C@@H]5C[C@@](C)(C(=O)O)CC[C@]5(C)CC[C@@]4(C)[C@]3(C)CC[C@@H]12 [glycyrrhetinic acid] | – | – | Thrombus weight (thrombus): reduce thrombus weight; Inhibition of FXa activity in vitro (FXa): significantly inhibit FXa activity in vitro with specificity |
| CC(C)=CCCC(C)(O)C1CCC2(C)C1C(O)CC1C3(C)CCC(O)C(C)(C)C3CCC12C (centres unmarked) [PPD, protopanaxdiol] | significant anti-coagulation activity | 339 | – |
| CC(C)=CCC[C@](C)(O)[C@H]1CC[C@]2(C)[C@@H]1[C@H](O)C[C@@H]1[C@@]3(C)CC[C@H](O)C(C)(C)[C@@H]3[C@@H](O[C@@H]3O[C@H](CO)[C@@H](O)[C@H](O)[C@H]3O)C[C@]12C [Rh1, ginsenoside Rh1] | significant anti-coagulation activity | – | IC50 [1]: 236 nM |
| CC(C)=CCC[C@](C)(O[C@@H]1O[C@H](CO)[C@@H](O)[C@H](O)[C@H]1O)[C@H]1CC[C@]2(C)[C@@H]1[C@H](O)C[C@@H]1[C@@]3(C)CC[C@H](O)C(C)(C)[C@@H]3[C@@H](O)C[C@]12C [F1, ginsenoside F1] | significant anti-coagulation activity | 227 | – |
| CC(C)=CCC[C@](C)(O)[C@H]1CC[C@]2(C)[C@@H]1[C@H](O)C[C@@H]1[C@@]3(C)CC[C@H](O)C(C)(C)[C@@H]3[C@@H](O[C@@H]3O[C@H](CO)[C@@H](O)[C@H](O)[C@H]3O[C@@H]3O[C@H](CO)[C@@H](O)[C@H](O)[C@H]3O)C[C@]12C [Rf, ginsenoside Rf] | insignificant anti-coagulation effects | 1030 | – |
| CC(C)=CCC[C@](C)(O)[C@H]1CC[C@]2(C)[C@@H]1[C@H](O)C[C@@H]1[C@@]3(C)CC[C@H](O[C@@H]4O[C@H](CO)[C@@H](O)[C@H](O)[C@H]4O)C(C)(C)[C@@H]3CC[C@]12C [Rh2, ginsenoside Rh2] | significant anti-coagulation activity | – | IC50 [1]: 349 nM |
| CC(C)=CCC[C@](C)(O[C@@H]1O[C@H](CO)[C@@H](O)[C@H](O)[C@H]1O)[C@H]1CC[C@]2(C)[C@@H]1[C@H](O)C[C@@H]1[C@@]3(C)CC[C@H](O[C@@H]4O[C@H](CO)[C@@H](O)[C@H](O)[C@H]4O)C(C)(C)[C@@H]3CC[C@]12C [F2, ginsenoside F2] | significant anti-coagulation activity | 425 | – |
| CC(C)=CCCC(C)(O)C1CCC2(C)C1C(O)CC1C3(C)CCC(O)C(C)(C)C3C(O)CC12C (centres unmarked) [PPT, protopanaxtriol] | best bioactivity (p < 0.01) | 141 | IC50 (human FIIa (thrombin)): 82000 nM |
| CC(C)=CCC[C@](C)(O)[C@H]1CC[C@]2(C)[C@@H]1[C@H](O)C[C@@H]1[C@@]3(C)CC[C@H](O)C(C)(C)[C@@H]3[C@@H](O[C@@H]3O[C@H](CO)[C@@H](O)[C@H](O)[C@H]3O[C@@H]3O[C@@H](C)[C@H](O)[C@@H](O)[C@H]3O)C[C@]12C [Rg2, ginsenoside Rg2] | best bioactivity (p < 0.01) | 136 | Anti-coagulant activities in vitro compared to heparin (blood coagulation): significantly better anti-coagulant activities; IC50 (human FIIa (thrombin)): 81300 nM |
| ginsenoside Rg3 | best bioactivity (p < 0.01) | – | – |
| 20(R)-Rg3 | insignificant anti-coagulation effects | – | – |
